Structures are written as SMILES.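 Each compound was tested at five concentrations against cells in 96-well plates for 48 hours. The concentration for 50% growth inhibition is given as GI50. Definition used: TGI = concentration required for complete inhibition of growth.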 Bounds are passed on as bounds.

Test systems include T-47D breast; DU-145 prostate; SK-MEL-5 melanoma; OVCAR-5 ovarian; SNB-19 CNS; MALME-3M melanoma; OVCAR-3 ovarian; UACC-62 melanoma; K-562 leukemia; SR leukemia.
Common to all, as to assay: growth of human tumour cells (NCI), 48 h

Consider `C=Cn1c([N+](=O)[O-])cnc1/C=C/c1ccc(C(=O)OCCN2CCOCC2)cc1`, for which the TGI in the test with T-47D breast, in the test with DU-145 prostate, in the test on SK-MEL-5 melanoma, with OVCAR-5 ovarian, in the test on SNB-19 CNS and in the test with MALME-3M melanoma was above 100 µM each time. The TGI in the test with OVCAR-3 ovarian, with UACC-62 melanoma and in the test with K-562 leukemia was above 100 µM throughout.

For the compound `COC(=O)c1cc(OC)c(OC)c(OC)c1-c1cc2c(cc1C=O)OCO2`, the TGI in the test with T-47D breast, with DU-145 prostate, with SK-MEL-5 melanoma, in the test with OVCAR-5 ovarian, with SNB-19 CNS and with MALME-3M melanoma was above 10 µM each time. For the same compound, the TGI with OVCAR-3 ovarian, with UACC-62 melanoma and in the test on K-562 leukemia was above 10 µM each time.

With `O=C1CC/C(=C/COc2cc(=O)oc3ccccc23)O1`, the GI50 with T-47D breast is 2.27 µM; in the test with DU-145 prostate, 4.32 µM; with SK-MEL-5 melanoma, 16.8 µM; with OVCAR-5 ovarian it was 3.68 µM; in the test on SNB-19 CNS, 10.9 µM; in the test with MALME-3M melanoma, 2.87 µM. For the same compound, the values for the GI50 in the test with OVCAR-3 ovarian, in the test with UACC-62 melanoma and in the test on K-562 leukemia were 5.41 µM, 12.2 µM and 19.3 µM, respectively. Further, the TGI in the test on T-47D breast came to 19.8 µM; in the test on DU-145 prostate, 17.6 µM; in the test on SK-MEL-5 melanoma it was 33.1 µM; with OVCAR-5 ovarian, 22.2 µM; with SNB-19 CNS, 26.7 µM; in the test with MALME-3M melanoma, 17.9 µM. Also, the results for the TGI with OVCAR-3 ovarian, in the test on UACC-62 melanoma and in the test on K-562 leukemia were 21.1 µM, 25.1 µM and 95.2 µM, respectively.

As for `NC(CSSCC(N)C(=O)O)C(=O)O` (configuration not stated), the GI50 in the test on T-47D breast, in the test with DU-145 prostate, in the test on SK-MEL-5 melanoma, in the test with OVCAR-5 ovarian, with SNB-19 CNS and in the test on MALME-3M melanoma was above 100 µM each time. The GI50 in the test with OVCAR-3 ovarian, in the test on UACC-62 melanoma and with K-562 leukemia was above 100 µM each time. For the same compound, the TGI with T-47D breast, in the test on DU-145 prostate, in the test on SK-MEL-5 melanoma, with OVCAR-5 ovarian, in the test with SNB-19 CNS and in the test with MALME-3M melanoma was above 100 µM throughout. Moreover, the TGI in the test with OVCAR-3 ovarian, in the test on UACC-62 melanoma and with K-562 leukemia was above 100 µM each time.

For `CN(CCCCCl)P(=O)(OCc1ccc([N+](=O)[O-])o1)OCC1OC(n2cnc([N+](=O)[O-])c2N)C(O)C1O` (configuration not stated), the GI50 is above 100 µM with DU-145 prostate; 37 µM in the test on SK-MEL-5 melanoma; 0.924 µM in the test with SR leukemia; above 100 µM in the test with OVCAR-5 ovarian; above 100 µM with SNB-19 CNS; above 100 µM in the test with MALME-3M melanoma. Besides, the GI50 in the test with OVCAR-3 ovarian, in the test with UACC-62 melanoma and with K-562 leukemia was above 100 µM each time. Further, the TGI with DU-145 prostate, in the test with SK-MEL-5 melanoma, in the test on SR leukemia, in the test on OVCAR-5 ovarian, in the test with SNB-19 CNS and in the test with MALME-3M melanoma was above 100 µM each time. The TGI in the test with OVCAR-3 ovarian, in the test on UACC-62 melanoma and in the test on K-562 leukemia was above 100 µM throughout.

As for `Cc1ccc(-n2nnnc2-c2cnc(N3CCOCC3)nc2-c2cccc(C(F)(F)F)c2)cc1`, the GI50 is 2.31 µM in the test on T-47D breast; 1.62 µM with DU-145 prostate; 0.275 µM with SK-MEL-5 melanoma; 1.13 µM with SR leukemia; 2.6 µM in the test on OVCAR-5 ovarian; 2.21 µM in the test on SNB-19 CNS. The GI50 was 1.05 µM in the test on OVCAR-3 ovarian, 1.73 µM in the test with UACC-62 melanoma and 1.96 µM in the test on K-562 leukemia. In addition, the TGI with T-47D breast is above 15.6 µM; with DU-145 prostate, 16.9 µM; in the test with SK-MEL-5 melanoma it was 3.42 µM; in the test on SR leukemia it was 3.17 µM; with OVCAR-5 ovarian, above 43.1 µM; in the test with SNB-19 CNS it was above 32.8 µM. In addition, the figures for the TGI in the test on OVCAR-3 ovarian, with UACC-62 melanoma and with K-562 leukemia were 2.81 µM, 25.2 µM and above 22.6 µM, respectively.

Turning to `CCCCNc1ccc(Nc2ccccc2)cc1`, the GI50 with T-47D breast is 1.65 µM; in the test with DU-145 prostate, 7.87 µM; in the test with SK-MEL-5 melanoma, 2.78 µM; with OVCAR-5 ovarian, 29 µM; in the test on SNB-19 CNS, 5.19 µM; in the test with MALME-3M melanoma, 3.8 µM. The GI50 in the test with OVCAR-3 ovarian is 3.79 µM; in the test on UACC-62 melanoma it was 8.2 µM; in the test on K-562 leukemia it was 2.45 µM. The TGI in the test with T-47D breast was 47 µM; in the test with DU-145 prostate, above 100 µM; with SK-MEL-5 melanoma it was 10.1 µM; in the test on OVCAR-5 ovarian, above 100 µM; in the test on SNB-19 CNS it was above 100 µM; with MALME-3M melanoma, 28.8 µM. For the same compound, the TGI in the test with OVCAR-3 ovarian was above 100 µM; with UACC-62 melanoma, above 100 µM; in the test with K-562 leukemia, 12 µM.

As for `Cc1nc2cc(Nc3nc(Nc4ccc(F)cc4)nc(N4CCOCC4)n3)ccc2n1Cc1ccccc1`, the GI50 in the test on T-47D breast is 3.88 µM; in the test with DU-145 prostate, 4.81 µM; in the test with SK-MEL-5 melanoma it was 2.9 µM; with SR leukemia, 2.4 µM; in the test on OVCAR-5 ovarian, 12.3 µM; with SNB-19 CNS, 5.72 µM. In addition, the GI50 in the test with OVCAR-3 ovarian is 2.75 µM; in the test with K-562 leukemia, 2.94 µM. Further, the TGI in the test on T-47D breast was above 100 µM; in the test with DU-145 prostate it was 18.8 µM; in the test with SK-MEL-5 melanoma, 11.1 µM; in the test on SR leukemia it was 7.38 µM; with OVCAR-5 ovarian, 28.6 µM; in the test on SNB-19 CNS, above 100 µM. Further, the TGI with OVCAR-3 ovarian turned out to be 7.14 µM; with K-562 leukemia, 11.7 µM.

Regarding `O=[N+]([O-])c1cc([N+](=O)[O-])c(Cl)cc1Cl`, the GI50 was 1.71 µM in the test on T-47D breast; 1.56 µM with DU-145 prostate; 1.79 µM in the test on SK-MEL-5 melanoma; 1.78 µM in the test with OVCAR-5 ovarian; 1.95 µM in the test with SNB-19 CNS; 2.05 µM with MALME-3M melanoma. Further, the GI50 was 1.42 µM with OVCAR-3 ovarian, 1.88 µM with UACC-62 melanoma and 0.249 µM in the test on K-562 leukemia. Moreover, the TGI came out at 4.42 µM with T-47D breast; 2.9 µM with DU-145 prostate; 3.68 µM with SK-MEL-5 melanoma; 3.6 µM in the test on OVCAR-5 ovarian; 3.66 µM in the test on SNB-19 CNS; 4.27 µM with MALME-3M melanoma. For the same compound, the TGI with OVCAR-3 ovarian worked out at 2.73 µM; in the test on UACC-62 melanoma, 3.82 µM; with K-562 leukemia, 0.642 µM.
